Data reported in publication PMC3928151 (ACS chemical biology, 2013).

Target: CaCrg1 (Candida albicans, UniProt A0A1D8PSY8)
Test: […] methyl transfer, acid-labile volatility
Type: biochemical
Settings: 0.2 mM cantharidin, 20 µM S-adenosyl-[methyl-14C]-L-methionine, 0.1 M sodium phosphate pH 7.4, 30 °C, 120 min

C[C@@]12C(=O)OC(=O)[C@]1(C)[C@H]1CC[C@@H]2O1 [cantharidin]
14C methyl transfer, acid-labile volatility (14C-methanol): demonstrating that CaCrg1 is a functional MTase methylating cantharidin in vitro
